Assay results: US20250215029A1 (Recludix Pharma, Inc., priority 2022, published 2025)
Like-named read-outs stand apart in the source and are kept apart here.

Legend:
pY641-STAT6 in PBMC = target: T1, pY641-STAT6 in PBMC (Homo sapiens, UniProt P42226); assay: MSD-pSTAT-PBMC Assay (pSTAT6, IL-4 stimulated); type: cell-based; settings: compound 3 hrs, then 1 ng/mL IL-4 for 10 min
T1 construct: Cryopreserved Peripheral Blood Mononuclear Cells (PBMC) are from AllCells; host or cells: cryopreserved PBMC
T1 sequence (P42226 1-847): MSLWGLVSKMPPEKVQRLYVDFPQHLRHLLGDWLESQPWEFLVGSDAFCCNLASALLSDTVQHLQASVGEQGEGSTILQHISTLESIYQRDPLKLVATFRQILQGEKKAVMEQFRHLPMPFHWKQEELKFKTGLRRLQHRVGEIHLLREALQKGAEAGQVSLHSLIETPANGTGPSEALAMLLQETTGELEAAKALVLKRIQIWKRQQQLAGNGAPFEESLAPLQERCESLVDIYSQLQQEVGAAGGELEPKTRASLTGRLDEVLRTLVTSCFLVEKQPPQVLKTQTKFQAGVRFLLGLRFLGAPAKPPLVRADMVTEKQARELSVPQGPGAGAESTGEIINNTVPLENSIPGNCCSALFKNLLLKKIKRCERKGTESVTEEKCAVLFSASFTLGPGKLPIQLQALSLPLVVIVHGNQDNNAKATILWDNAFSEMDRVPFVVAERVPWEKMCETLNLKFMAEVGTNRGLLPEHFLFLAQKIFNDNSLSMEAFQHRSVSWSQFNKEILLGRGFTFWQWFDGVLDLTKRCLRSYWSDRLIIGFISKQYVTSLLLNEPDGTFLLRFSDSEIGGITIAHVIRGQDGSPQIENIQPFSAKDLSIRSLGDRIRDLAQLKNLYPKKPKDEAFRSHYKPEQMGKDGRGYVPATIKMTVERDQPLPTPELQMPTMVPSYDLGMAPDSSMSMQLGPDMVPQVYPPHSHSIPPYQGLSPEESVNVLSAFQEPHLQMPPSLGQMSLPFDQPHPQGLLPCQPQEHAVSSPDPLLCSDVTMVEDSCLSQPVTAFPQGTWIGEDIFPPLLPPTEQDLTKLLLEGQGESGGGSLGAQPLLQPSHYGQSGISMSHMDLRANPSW
Procedure, shortened: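 MSD electrochemiluminescence read-out: total STAT captured, probed with anti-pY641-STAT6 or anti-pY705-STAT3. Human PBMC, 3 h compound pretreatment, 10 min stimulation (IL-4 1 ng/mL or IL-6 10 ng/mL). Unstimulated signal subtracted, DMSO-normalized, variable-slope IC50.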

pY705-STAT3 in PBMC = target: T2, pY705-STAT3 in PBMC (Homo sapiens, UniProt P40763); assay: MSD-pSTAT-PBMC Assay (pSTAT3, IL-6 stimulated); type: cell-based; settings: compound 3 hrs, then 10 ng/mL IL-6 for 10 min
T2 construct: Cryopreserved Peripheral Blood Mononuclear Cells (PBMC) are from AllCells; host or cells: cryopreserved PBMC
Procedure, shortened: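 Human PBMCs were pretreated with compound for 3 h, then stimulated with 10 ng/mL IL-6 for 10 min. Lysate pY705-STAT3 was measured by MSD sandwich immunoassay (anti-STAT3 capture) and corrected for unstimulated background. Signal was normalized to DMSO, and IC50 came from variable-slope regression.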

[1] = PBMC, Table 1114, read-out: pSTAT3
[2] = PBMC, Table 1114, read-out: pSTAT6
[3] = PBMC, Table 115, read-out: STAT3
[4] = PBMC, Table 115, read-out: STAT6

T2 sequence (P40763 whole entry): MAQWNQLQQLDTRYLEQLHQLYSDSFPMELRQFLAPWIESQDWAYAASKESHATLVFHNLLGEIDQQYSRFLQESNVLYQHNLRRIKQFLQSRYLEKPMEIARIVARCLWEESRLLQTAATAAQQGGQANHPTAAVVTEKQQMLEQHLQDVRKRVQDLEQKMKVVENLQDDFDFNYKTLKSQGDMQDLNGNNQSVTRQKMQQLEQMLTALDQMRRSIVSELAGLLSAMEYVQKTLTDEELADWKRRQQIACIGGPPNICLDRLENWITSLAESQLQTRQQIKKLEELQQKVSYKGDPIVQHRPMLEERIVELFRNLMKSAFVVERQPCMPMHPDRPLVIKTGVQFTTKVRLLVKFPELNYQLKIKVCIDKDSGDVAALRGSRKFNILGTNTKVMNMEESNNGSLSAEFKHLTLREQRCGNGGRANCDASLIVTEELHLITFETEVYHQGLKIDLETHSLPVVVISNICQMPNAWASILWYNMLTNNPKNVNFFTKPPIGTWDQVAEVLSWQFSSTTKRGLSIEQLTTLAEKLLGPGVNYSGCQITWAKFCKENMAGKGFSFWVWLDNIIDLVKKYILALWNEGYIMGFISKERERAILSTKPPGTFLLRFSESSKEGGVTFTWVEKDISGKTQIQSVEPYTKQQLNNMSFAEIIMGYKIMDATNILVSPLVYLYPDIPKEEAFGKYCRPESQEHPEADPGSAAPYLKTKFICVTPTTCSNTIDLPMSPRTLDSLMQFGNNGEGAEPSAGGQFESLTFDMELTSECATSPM

| IC50 (pY641-STAT6 in PBMC; [4]) [µM] | SMILES | IC50 (pY641-STAT6 in PBMC; STAT6, PBMC, Table 115) [µM] | IC50 (pY705-STAT3 in PBMC; [3]) [µM] | other results |
| --- | --- | --- | --- | --- |
| – | CC(C)OC(=O)[C@H](C)NP(=O)(Oc1ccccc1)C(F)c1ccc2sc(C(=O)N[C@H]3CCCC[C@H]4CC[C@@H](C(=O)N5C[C@H](c6cc[nH]c(=O)c6)[C@@H](C#N)C5)N4C3=O)cc2c1 (single isomer, unassigned) [Compound 198, isopropyl (((2-(((3S,6S,10aS)-3-((3R,4S or 3S,4R)-3-cyano-4-(2-oxo-1,2-dihydropyridin-4-yl)pyrrolidine-1-carbonyl)-5-oxodecahydro-pyrrolo[1,2-a]azocin-6-yl)carbamoyl)benzo[b]thiophen-5-yl)fluoro-methyl) (phenoxy)phosphoryl)-L-alaninate] | – | – | IC50 (pY641-STAT6 in PBMC; pSTAT6, PBMC, Table 1114): > 3 µM; IC50 (pY705-STAT3 in PBMC; [1]): > 3 µM |
| – | CC(C)(CO)C(=O)SCCOP(=O)(Cc1ccc2sc(C(=O)NC3CCCCC4CCC(C(=O)N5CC(C#N)C(c6ccccc6)C5)N4C3=O)cc2c1)OCCSC(=O)C(C)(C)CO (single isomer, unassigned) [Compound 199, S,S′-(((((2-(((3S,6S,10aS)-3-((3S,4R or 3R,4S)-3-cyano-4-phenylpyrrolidine-1-carbonyl)-5-oxodecahydropyrrolo[1,2-a]azocin-6-yl)carbamoyl)benzo[b]thiophen-5-yl)methyl)phosphoryl)bis(oxy))bis(ethane-2,1-diyl))bis(3-hydroxy-2,2-dimethylpropanethioate)trifluoroacetate] | – | – | IC50 (pY641-STAT6 in PBMC; [2]): > 3 µM; IC50 (pY705-STAT3 in PBMC; [1]): > 3 µM |
| – | CC(C)(CO)C(=O)SCCOP(=O)(OCCSC(=O)C(C)(C)CO)C(F)(F)c1ccc2sc(C(=O)N[C@H]3CCCC[C@H]4CC[C@@H](C(=O)N5C[C@@H](C#N)[C@H](c6ccccc6)C5)N4C3=O)cc2c1 (single isomer, unassigned) [Compound 200, S,S′-(((((2-(((3S,6S,10a S)-3-((3S,4R or 3R,4S)-3-cyano-4-phenylpyrrolidine-1-carbonyl)-5-oxodecahydro-pyrrolo [1,2-a]azocin-6-yl)carbamoyl)benzo[b]thiophen-5-yl)difluoromethyl)phosphoryl)bis(oxy))bis(ethane-2,1-diyl)) bis(3-hydroxy-2,2-dimethyl-propanethioate)] | – | – | IC50 (pY641-STAT6 in PBMC; [2]): > 3 µM; IC50 (pY705-STAT3 in PBMC; [1]): 1 to 3 µM |
| – | CC(C)(O)CC(=O)SCCOP(=O)(OCCSC(=O)CC(C)(C)O)C(F)(F)c1ccc2sc(C(=O)N[C@H]3CCCC[C@H]4CC[C@@H](C(=O)N5C[C@@H](C#N)[C@H](c6ccccc6)C5)N4C3=O)cc2c1 (single isomer, unassigned) [Compound 202, S,S′-(((((2-(((3S,6S,10a S)-3-((3S,4R or 3R,4S)-3-cyano-4-phenylpyrrolidine-1-carbonyl)-5-oxodecahydro-pyrrolo [1,2-a]azocin-6-yl)carbamoyl)benzo [b]thiophen-5-yl)difluoromethyl)phosphoryl)bis(oxy))bis(ethane-2,1-diyl)) bis(3-hydroxy-3-methylbutane thioate)] | – | – | IC50 (pY641-STAT6 in PBMC; [2]): 1 to 3 µM; IC50 (pY705-STAT3 in PBMC; [1]): > 3 µM |
| – | CCCOC(=O)[C@H](C)NP(=O)(Oc1ccccc1)C(F)c1ccc2sc(C(=O)N[C@H]3CCCC[C@H]4CC[C@@H](C(=O)N5C[C@@H](C#N)[C@H](c6ccccc6)C5)N4C3=O)cc2c1 (single isomer, unassigned) [Compound 315] | < 0.1 | > 3 | – |
| – | CCCOC(=O)[C@H](C)NP(=O)(Oc1ccccc1)C(F)c1ccc2sc(C(=O)N[C@H]3CCCC[C@H]4CC[C@@H](C(=O)N5C[C@@H](c6cccc(OC)c6)[C@H](C#N)C56CC6)N4C3=O)cc2c1 (single isomer, unassigned) [Compound 326] | < 0.1 | > 3 | – |
| – | CCCOC(=O)[C@H](C)NP(=O)(Oc1ccccc1)[C@@H](F)c1ccc2sc(C(=O)N[C@H]3CCCC[C@H]4CC[C@@H](C(=O)N5C[C@@H](C#N)[C@H](c6ccccc6)C5)N4C3=O)cc2c1 (single isomer, unassigned) [Compound 343] | < 0.1 | > 3 | – |
| – | CCCOC(=O)[C@H](C)NP(=O)(Oc1ccccc1)[C@H](F)c1ccc2sc(C(=O)N[C@H]3CCC[C@H]4CC[C@@H](C(=O)N5C[C@H](c6cccnc6)[C@@H](C#N)C56CC6)N4C3=O)cc2c1 (single isomer, unassigned) [Compound 354] | < 0.1 | > 3 | – |
| 0.1 to 1 | N#C[C@H]1CN(C(=O)[C@@H]2CC[C@@H]3CCCC[C@H](NC(=O)c4ccc5ccc(C(F)(F)P(=O)(OCCSC(=O)CC6COC6)OCCSC(=O)CC6COC6)cc5c4)C(=O)N32)C[C@@H]1c1cc[nH]c(=O)c1 (single isomer, unassigned) [Compound 408] | – | > 3 | – |
| – | CCCOC(=O)[C@H](C)N[P@](=O)(Oc1ccccc1)[C@@H](F)c1ccc2sc(C(=O)N[C@H]3CCC[C@H]4CC[C@@H](C(=O)N5CC(c6cnccc6N(C)C)C5)N4C3=O)cc2c1 (single isomer, unassigned) [Compound 941] | 1 to 3 | < 0.1 | – |
| – | CCCOC(=O)[C@H](C)NP(=O)(Oc1ccccc1)[C@H](F)c1ccc2sc(C(=O)N[C@H]3CCC[C@H]4CC[C@@H](C(=O)N5CC(c6cnccc6N(C)C)C5)N4C3=O)cc2c1 (single isomer, unassigned) [Compound 954] | > 3 | < 0.1 | – |
| – | CC(C)CC(=O)SCCOP(=O)(Oc1cccc(C#N)c1)C(F)(F)c1ccc2sc(C(=O)N[C@H]3CCCC[C@H]4CC[C@@H](C(=O)N5C[C@H](c6ccccc6)[C@@H](C#N)C5)N4C3=O)cc2c1 (single isomer, unassigned) [Compound 1007] | 0.1 to 1 | – | IC50 (pY705-STAT3 in PBMC; STAT3, PBMC, Table 115): > 3 µM |
| 0.1 to 1 | COCC(=O)SCCOP(=O)(OCCSC(=O)COC)C(F)(F)c1ccc2sc(C(=O)N[C@H]3CCCC[C@H]4CC[C@@H](C(=O)N5C[C@@H](C#N)[C@H](c6cc[nH]c(=O)c6)C5)N4C3=O)cc2c1 (single isomer, unassigned) [Compound 1010] | – | 1 to 3 | – |
| – | CCCOC(=O)[C@H](C)N[P@](=O)(Oc1ccccc1)[C@H](F)c1ccc2sc(C(=O)N[C@H]3CCC[C@H]4CC[C@@H](C(=O)N5CC(c6cnccc6N6CCOCC6)C5)N4C3=O)cc2c1 (single isomer, unassigned) [Compound 1045] | > 3 | < 0.1 | – |
| – | COc1ccncc1C1CN(C(=O)[C@@H]2CC[C@@H]3CCC[C@H](NC(=O)c4cc5cc([C@@H](F)[P@](=O)(N[C@@H](C)C(=O)OCc6ccccc6)Oc6ccccc6)ccc5s4)C(=O)N32)C1 (single isomer, unassigned) [Compound 1055] | > 3 | < 0.1 | – |
| 0.1 to 1 | COCCC(=O)SCCOP(=O)(OCCSC(=O)CCOC)C(F)(F)c1ccc2sc(C(=O)N[C@H]3CCCC[C@H]4CC[C@@H](C(=O)N5C[C@@H](C#N)[C@H](c6cc[nH]c(=O)c6)C5)N4C3=O)cc2c1 (single isomer, unassigned) [Compound 1083] | – | 1 to 3 | – |
| < 0.1 | CC(C)CC(=O)SCCOP(=O)(OCOC(=O)OC1CCOCC1)C(F)(F)c1ccc2sc(C(=O)N[C@H]3CCCC[C@H]4CC[C@@H](C(=O)N5C[C@H](c6cc[nH]c(=O)c6)[C@@H](C#N)C5)N4C3=O)cc2c1 (single isomer, unassigned) [Compound 1085] | – | 0.1 to 1 | – |
| < 0.1 | CC(C)OC(=O)OCOP(=O)(OCOC(=O)OC(C)C)C(F)(F)c1ccc2ccc(C(=O)N[C@H]3CCCC[C@H]4CC[C@@H](C(=O)N5C[C@H](c6cc[nH]c(=O)c6)[C@@H](C#N)C5)N4C3=O)cc2c1 (single isomer, unassigned) [Compound 1087] | – | 0.1 to 1 | – |
| < 0.1 | CC(C)OC(=O)OCOP(=O)(OCOC(=O)OC(C)C)C(F)(F)c1ccc2ccc(C(=O)N[C@H]3CCCC[C@H]4CC[C@@H](C(=O)N5C[C@@H](C#N)[C@H](c6cc[nH]c(=O)c6)C5)N4C3=O)cc2c1 (single isomer, unassigned) [Compound 1088] | – | 1 to 3 | – |
| 0.1 to 1 | CC(C)CC(=O)SCCOP(=O)(OCCSC(=O)CC(C)C)[C@@H](F)c1ccc2sc(C(=O)N[C@H]3CCCC[C@H]4CC[C@@H](C(=O)N5C[C@@H](C#N)[C@H](c6cc[nH]c(=O)c6)C5)N4C3=O)cc2c1 (single isomer, unassigned) [Compound 1090] | – | 1 to 3 | – |
